Results as given in US20260223847A1, “Compounds for Increasing Frost Tolerance in Plants” (VIB VZW, priority 2023, published 2026).

Key:
Assay type in all cases: in vivo
[1] = system: Arabidopsis Col-0 seedlings; test: Arabidopsis primary root growth / lateral root number; conditions: long day (LD: 16/8 h) conditions
Description: FIG. 1: Left: hypocotyl length of Arabidopsis Col-0 seedlings germinated on solid ½MS medium for 4 days and then transferred for 3 more days to liquid ½MS supplemented with a range of concentrations of A68. Right: primary root length of Arabidopsis Col-0 seedlings grown on solid ½MS medium supplemented with a range of concentrations of A68 for 12 days. A bioactive compound, herein further designated as A68, was identified by screening a commercial 10,000 compound library (DIVERSet, ChemBridge Corporation) for hypocotyl elongation phenotype at a final concentration of 50 μM in 2% DMSO. A68 promotes hypocotyl elongation, while suppresses primary root growth but increases lateral root number under long day (LD: 16/8 h) conditions (see FIG. 1).

Arabidopsis seedlings = test: Osmotic stress tolerance in Arabidopsis seedlings (sorbitol); conditions: low concentrations; ½MS with sorbitol
Experimental: FIGS. 4A-4D: Effect of A68 and its variant A68-6 on Arabidopsis growth in osmotic stress conditions. The two compounds were tested at 3 different concentrations in ½MS without sucrose supplemented with 100 mM sorbitol. The extent of stress tolerance in presence of the small molecules was estimated by following the rosette size (FIG. 4A) as well as root related parameters, such as the total (FIG. 4B) and main (FIG. 4C) root length and lateral root number (FIG. 4D). Results are presented relative to the mock-treated control (0.005% DMSO). FIGS. 5A-5D: Effect of A68-6 on Arabidopsis growth in osmotic stress conditions. The compound was tested at 3 different concentrations in ½MS without sucrose supplemented with 200 mM sorbitol. The extent of stress tolerance in presence of the small molecules was estimated by following the rosette size (FIG. 5A) as well as root related parameters, such as the total (FIG. 5B) and main (FIG. 5C) root length and lateral root number (FIG. 5D). Results are presented relative to the mock-treated control (0.005% DMSO).

[2] = system: Strawberry, Fragaria ananasa, cv. Elsanta; test: Efficacy trial against frost damage on strawberry (trial 22.RM.SAB.028)
Description: Preparation of the agronomical formulation: compound A68 is suspended in acetone at a concentration of 1 g/l. Further in this example this suspension is designated as 22.SC.040.
Trial setup: Strawberry, Fragaria ananasa, tray plants cv. Elsanta were planted in P13 pots, 1 plant per pot. The used substrate was a standard strawberry-substrate with addition of 180 g Osmocoat/651 substrate. (Osmocoat 18-5-11+4CaO+2MgO Agroblen 3-4 months).
36 plants (6 objects×6 repetitions) were randomly placed on tables with eb-flood system (21 l/2.5 m2 during 10 minutes, 2×/24 hours) in the greenhouse (22° C./10° C. day/night; 50% RH).
Foliar applications were executed in a standardized spraying cabin. A nozzle (Albuz TVI, color green) moved over the plants with a constant speed, simulating a spraying volume of 300l/ha.
At full bloom of the first flower branch, these branches were marked with a plastic strip. The plants were placed on pallets and enter a fridge at 5° C. during night, to decrease warmth in the substrate and chill the plants. The next morning, the plants were moved from the fridge to a freezing container. […]
One day and one week after frost, the flowers on the marked branches were assessed. […]
When the fruits ripen, the ripe fruits were picked. […] Also, the number of fruits were counted and the weight was measured. […]

[3] = system: Arabidopsis Col-0 seedlings; test: Arabidopsis hypocotyl elongation (growth) assay; conditions: long day (LD: 16/8 h) conditions
Experimental: FIG. 1: Left: hypocotyl length of Arabidopsis Col-0 seedlings germinated on solid ½MS medium for 4 days and then transferred for 3 more days to liquid ½MS supplemented with a range of concentrations of A68. Right: primary root length of Arabidopsis Col-0 seedlings grown on solid ½MS medium supplemented with a range of concentrations of A68 for 12 days. FIG. 2: Effects of A68 and its related variants on the Arabidopsis hypocotyl elongation. Arabidopsis seedlings were grown on solid ½MS medium for 4 days and then transferred for 3 more days to liquid ½ MS supplemented with the studied compounds at either 0.5 or 50 μM final concentration. Hypocotyl length is represented relative to that of mock-treated seedlings from the same biological repeats. n>400 seedlings for DMSO and A68 initial hit (control treatments throughout the experiments), n>30 seedlings for the A68 variants. Student's two-sample t-test, *P<0.05, **P<0.01 and ***P<0.001. FIG. 3: Hypocotyl elongation dose-response curves for A68 and three bioactive variants A68-6, A68-8 and A68-53 showing the half-maximum effective concentration EC50. A bioactive compound, herein further designated as A68, was identified by screening a commercial 10,000 compound library (DIVERSet, ChemBridge Corporation) for hypocotyl elongation phenotype at a final concentration of 50 μM in 2% DMSO. […]

With `Cc1cccc(C(=O)Nc2ccc(Oc3ccc4c(c3)C(=O)NC4=O)cc2)c1` [Compound A68, N-(4-((1,3-dioxoisoindolin-5-yl)oxy)phenyl)-3-methylbenzamide] the lateral root number [1] was “increases”, the primary root growth [1] was “suppresses” and the “tolerance to mild osmotic stress” value (Arabidopsis seedlings) was “enhance tolerance”. The “efficacy to decrease frost damage on strawberry” value ([2]; A68 suspended in acetone, foliar spray) was “clear indications of efficacy”, the optimal dose-rate ([2]; maximum efficacy of the Gauss-curve) was “around 1000 mg/ha” and the hypocotyl elongation [3] was “promotes”.
